Results as given in patent publication US10597388B2, “Pyridazinone herbicides” (FMC CORPORATION, priority 2014, dated 2020).

How the values were obtained:
Assay in all cases: Test D controlled growth environment herbicide test, pre- and postemergence
Assay type in all cases: in vivo
[1] = test system: chamomile (scentless chamomile, Matricaria inodora)
Summary of the method: (§1)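 Species sown in silt loam and sprayed preemergence, or grown in peat-based medium to 2–18 cm (1- to 4-leaf stage) and sprayed postemergence, with compounds in non-phytotoxic solvent plus surfactant. Visual injury scored versus controls after 14–21 d in a controlled environment, 0 (no effect) to 100 (complete control).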

[2] = test system: oilseed rape (Brassica napus)
Summary of the method: as §1

[3] = test system: galium (catchweed bedstraw, Galium aparine)
Summary of the method: as §1

[4] = test system: lambsquarters (Chenopodium album)
Summary of the method: as §1

[5] = test system: blackgrass (Alopecurus myosuroides)
Summary of the method: as §1

[6] = test system: buckwheat, wild (wild buckwheat, Polygonum convolvulus)
Summary of the method: as §1

kochia (Kochia scoparia) = test system: kochia (Kochia scoparia)
Summary of the method: as §1

[7] = test system: Russian thistle (Salsola kali)
Summary of the method: as §1

[8] = test system: pigweed (Amaranthus retroflexus)
Summary of the method: as §1

[9] = test system: oat, wild (wild oat, Avena fatua)
Summary of the method: as §1

[10] = test system: field violet (Viola arvensis)
Summary of the method: as §1

[11] = test system: bromegrass, downy (downy bromegrass, Bromus tectorum)
Summary of the method: as §1

[12] = test system: speedwell (bird's-eye speedwell, Veronica persica)
Summary of the method: as §1

[13] = Postemergence, 31 g ai/ha, scale 0 to 100 (0 no effect, 100 complete control)
[14] = Postemergence, 125 g ai/ha, visual rating on scale 0 (no effect) to 100 (complete control), 14 to 21 d
[15] = Postemergence, 250 g ai/ha, scale 0 to 100 (0 no effect, 100 complete control)
[16] = Preemergence, 125 g ai/ha, scale 0 to 100 (0 no effect, 100 complete control)
[17] = Preemergence, 250 g ai/ha, scale 0 to 100 (0 no effect, 100 complete control)
[18] = postemergence, 62 g ai/ha, scale 0 to 100, 0 no effect, 100 complete control
[19] = Preemergence, 62 g ai/ha, scale 0 to 100 (0 no effect, 100 complete control)

CC(=O)Oc1c(C)nn(C)c(=O)c1-c1ccc(F)c2ccccc12 [Compound 90]
90: Lambsquarters plant response rating [4, 13] | Plant response rating (scale of 0 to 100), Lambsquarters ([4]; Preemergence, 31 g ai/ha) | Plant response rating, Lambsquarters [4, 18] | Plant response rating, Buckwheat, Wild [6, 18] | Plant response rating, Kochia (kochia (Kochia scoparia); [16]) | Plant response rating, Russian Thistle [7, 15] | Plant response rating, Pigweed [8, 18] | Plant response rating, Oat, Wild [9, 18] | Field Violet plant response rating [10, 13]
0: Oilseed Rape plant response rating [2, 13] | Plant response rating (scale of 0 to 100), Oilseed Rape ([2]; Preemergence, 31 g ai/ha) | Plant response rating (scale of 0 to 100), Oilseed Rape ([2]; Preemergence, 62 g ai/ha) | Plant response rating, Oilseed Rape [2, 16] | Plant response rating, Oilseed Rape [2, 17]
65: Plant response rating, Blackgrass [5, 15] | Plant response rating (scale of 0 to 100), Kochia (kochia (Kochia scoparia); Preemergence, 62 g ai/ha)
60: Plant response rating, Blackgrass [5, 17] | Plant response rating, Russian Thistle [7, 17]
40: Plant response rating, Buckwheat, Wild [6, 16] | Plant response rating, Bromegrass, Downy [11, 14]
30: Russian Thistle plant response rating [7, 13] | Plant response rating, Bromegrass, Downy [11, 18]
5: Plant response rating, Oilseed Rape [2, 18]
80: Buckwheat, Wild plant response rating [6, 13] | Plant response rating, Buckwheat, Wild [6, 17] | Plant response rating, Kochia (kochia (Kochia scoparia); [17]) | Pigweed plant response rating [8, 13] | Plant response rating (scale of 0 to 100), Oat, Wild ([9]; Preemergence, 62 g ai/ha)
15: Plant response rating, Oilseed Rape [2, 14] | Blackgrass plant response rating [5, 13] | Plant response rating (scale of 0 to 100), Buckwheat, Wild ([6]; Preemergence, 31 g ai/ha) | Plant response rating (scale of 0 to 100), Russian Thistle ([7]; Preemergence, 62 g ai/ha) | Plant response rating (scale of 0 to 100), Bromegrass, Downy ([11]; Preemergence, 31 g ai/ha)
25: Plant response rating (scale of 0 to 100), Blackgrass ([5]; Preemergence, 31 g ai/ha) | Plant response rating (scale of 0 to 100), Pigweed ([8]; Preemergence, 31 g ai/ha)
20: Bromegrass, Downy plant response rating [11, 13] | Plant response rating, Bromegrass, Downy [11, 19]
98: Plant response rating, Chamomile [1, 14] | Galium plant response rating [3, 13] | Plant response rating (scale of 0 to 100), Lambsquarters ([4]; Preemergence, 62 g ai/ha) | Plant response rating, Oat, Wild [9, 14] | Plant response rating, Oat, Wild [9, 17] | Plant response rating, Field Violet [10, 18]
10: Plant response rating (scale of 0 to 100), Russian Thistle ([7]; Preemergence, 31 g ai/ha)
45: Plant response rating, Blackgrass [5, 16]
100: Plant response rating, Chamomile [1, 15] | Plant response rating (scale of 0 to 100), Chamomile ([1]; Preemergence, 31 g ai/ha) | Plant response rating (scale of 0 to 100), Chamomile ([1]; Preemergence, 62 g ai/ha) | Plant response rating, Chamomile [1, 16] | Plant response rating, Chamomile [1, 17] | Plant response rating, Galium [3, 14] | Plant response rating, Galium [3, 15] | Plant response rating, Galium [3, 18] | Plant response rating, Lambsquarters [4, 14] | Plant response rating, Lambsquarters [4, 15] | Plant response rating, Lambsquarters [4, 17] | Plant response rating, Buckwheat, Wild [6, 14] | Plant response rating, Buckwheat, Wild [6, 15] | Plant response rating, Kochia (kochia (Kochia scoparia); [14]) | Plant response rating, Kochia (kochia (Kochia scoparia); [15]) | Plant response rating, Kochia (kochia (Kochia scoparia); [18]) | Plant response rating, Pigweed [8, 15] | Plant response rating, Pigweed [8, 16] | Plant response rating, Pigweed [8, 17] | Plant response rating, Oat, Wild [9, 15] | Plant response rating, Field Violet [10, 14] | Plant response rating, Field Violet [10, 15] | Plant response rating, Field Violet [10, 16] | Plant response rating, Field Violet [10, 17] | Speedwell plant response rating [12, 13] | Plant response rating, Speedwell [12, 14] | Plant response rating, Speedwell [12, 15] | Plant response rating (scale of 0 to 100), Speedwell ([12]; Preemergence, 31 g ai/ha) | Plant response rating (scale of 0 to 100), Speedwell ([12]; Preemergence, 62 g ai/ha) | Plant response rating, Speedwell [12, 16] | Plant response rating, Speedwell [12, 17] | Plant response rating, Speedwell [12, 18]
95: Plant response rating, Galium [3, 17] | Plant response rating, Pigweed [8, 14] | Plant response rating (scale of 0 to 100), Field Violet ([10]; Preemergence, 31 g ai/ha) | Plant response rating (scale of 0 to 100), Field Violet ([10]; Preemergence, 62 g ai/ha) | Plant response rating, Bromegrass, Downy [11, 17]
55: Plant response rating, Blackgrass [5, 14] | Plant response rating, Bromegrass, Downy [11, 15] | Plant response rating, Bromegrass, Downy [11, 16]
75: Plant response rating, Chamomile [1, 18] | Plant response rating (scale of 0 to 100), Galium ([3]; Preemergence, 31 g ai/ha) | Plant response rating (scale of 0 to 100), Galium ([3]; Preemergence, 62 g ai/ha) | Plant response rating (scale of 0 to 100), Kochia (kochia (Kochia scoparia); Preemergence, 31 g ai/ha) | Plant response rating, Russian Thistle [7, 14] | Plant response rating, Russian Thistle [7, 18] | Oat, Wild plant response rating [9, 13] | Plant response rating (scale of 0 to 100), Oat, Wild ([9]; Preemergence, 31 g ai/ha)
70: Chamomile plant response rating [1, 13] | Plant response rating, Oilseed Rape [2, 15]
35: Plant response rating, Blackgrass [5, 19] | Plant response rating, Blackgrass [5, 18] | Plant response rating, Russian Thistle [7, 16] | Plant response rating (scale of 0 to 100), Pigweed ([8]; Preemergence, 62 g ai/ha)
85: Plant response rating, Galium [3, 16] | Plant response rating, Lambsquarters [4, 16] | Kochia plant response rating (kochia (Kochia scoparia); [13]) | Plant response rating, Oat, Wild [9, 16]
